# Assay results from patent publication US7553866B2, “Thiolactones” (Eisai Corporation of North America, priority 2003, dated 2009).
# “Also recorded” adds a separate entry of the source. Marks after values point to notes of the source that are not given here. Peptide text beside a SMILES is read from it.
# Key:
# C57/BL mice [1] = experiment: animal or person; format: in vivo; settings: for ED50: Mus musculus, sc
# Protocol: (§1) Male C57/BL mice (IMP, Lodz, Poland), 22-24 g of body weight were group-housed in the standard laboratory cages and kept in a temperature-controlled colony room (21±2° C.) with a 12-hour light/dark cycle (light on: 07:00, off: 19:00). Commercial food and tap water were available ad libitum. Each experimental group consisted of 7-28 mice per treatment. All mice were used only once.
# (§2) The intensity of the heat stimulus was adjusted so that the baseline tail-flick latency was ˜3 seconds. […] Each response assessment consisted of two separate measurements taken at different portions of the tail (spaced by 1.5-2 cm) and separated by 15 seconds. The mean of these responses was used for subsequent comparisons.
# C57/BL mice [2] = experiment: Acute effects in the tail-flick test (Experiment 2); format: in vivo
# Protocol: as §1, §2
# The N is given in brackets. Presented in FIG. 5 are mean±S.E.M. Area Under Curve (AUC) values calculated on the same data.
# BB/W rats = experiment: Retinal disorder (diabetic retinopathy) in BB/W rats: BM thickness and E/P ratio after 6 months of daily treatment; format: in vivo, rat; settings: for BM THICKNESS (nm) ± SD: retinal capillaries
# Protocol: Four groups of rats received daily insulin injections to maintain their glucose levels at about 350 mg/dl. Starting at the onset of hyperglycemia, NAALADase inhibitor 2-(3-sulfanylpropyl)-pentanedioic acid (Compound B) was administered daily for 6 months to one group of BB/W rats at a dose of 10 mg/kg and to a second group of BB/W rats at a dose of 30 mg/kg. A third group of BB/W rats and a fourth group of non-diabetic rats received daily vehicle treatment (50 mM Hepes buffered saline).
# After 6 months of treatment with Compound B or vehicle treatment, the rats were sacrificed and their eyes were removed. From each rat, one eye was processed for elastase digest while the other eye was processed for transmission electron microscopy (TEM) and basement membrane (BM) thickness.
# Retinal digests were prepared using elastase on retinas as described in Layer, N., Invest Ophthalmol Vis Sci (1993) 34:2097. Eyes were removed from recently killed BB/W rats (n=30) and age-matched transgenic controls (n=12). The retinas (n=12) were fixed at room temperature by immersing the whole eye (slit at limbus) in 4% (w/v) paraformaldehyde in 50 mmol/L Na—K phosphate buffer with 8% sucrose. The fixed retinas were rinsed in deionized water and were incubated for 3 minutes in a 37° C. agitating water bath in 40 units/mL elastase in Na—K phosphate buffer with 150 mmol/L NaCl and 5 mmol/L ethylenediamine tetraacetic acid (EDTA), pH 6.5. The tissues were washed overnight in 100 mmol/L Tris-HCL (pH 8.5) and then transferred to deionized water for removal of the loosened vitreous and digested neural elements by gentle agitation using the sides of closed forceps and the sides and ends of very fine brushes. After all loose tissues were removed, the retinas were incubated once more in fresh enzyme for 3 minutes and then subjected to a second overnight wash at room temperature in Tns-HCl buffer. On the third day, the retinas were again transferred to deionized water for additional removal of digested neural elements. The vascular network that was completely free of nonvascular elements was mounted flat by flotation in Ca^2+ and Mg^2+ free Dulbecco's Phosphate-Buffered Saline (PBS) on siliconized slides (#S1308, Oncor, Gaithersburg, Md.). After air drying in a dust free environment, the mounts of the retinal microvasculature were stained using periodic acid Schiff reaction and hematoxylin counterstaining, as described in Luna, L., ed. Manual of Histologic Staining Methods of the Armed Forces Institute of Pathology (1968) McGraw-Hill, New York, N.Y. The preparations were then examined by light microscopy and photographed.
# The stained and intact retinal whole mounts were coded and counted, as described in Cuthbertson, R., Invest Ophthalmol Vis Sci. (1986) 27:1659-1664).
# Ten fields at ×100 magnification were counted for endothelial and pericyte cells using previously described morphologic criteria (see Kuwabara, T., Arch Ophthalmol. (1960) 64:904-911). In every sample, at least 200 cells were counted from the mid zone of the retina. Mean values for endothelial cell/pericyte (E/P) ratios were initially calculated in 3 retinas from each of the 4 groups of rats.
# Each eye was fixed in 4% glutaraldehyde and dissected free of sclera and choroids, then trimmed and postfixed in 1% osmium tetroxide. After dehydration and embedding, thin sections were stained with uranyl acetate and lead citrate. Initially, BM thickness of retinal capillaries from 3 non-diabetic rats receiving vehicle, 3 diabetic animals receiving 10 mg/kg Compound B, and 3 diabetic rats receiving 30 mg/kg Compound B were compared with 3 diabetic rats receiving a vehicle. At least 10 capillaries per eye from the inner nuclear and plexiform layers were photographed at a magnification of 10,000×. Exact magnification was determined for each set of negatives with a 28,800 line/inch calibration grid. Negatives were enlarged 3×. […]
# [3] = test system: Brown Norway rats (Rattus norvegicus); experiment: Experimental rat glaucoma (unilateral IOP elevation), optic nerve fiber counting; format: in vivo; settings: 10 mg/kg i.p. daily; for Fiber Number: glaucoma eye optic nerve; for Percent Difference (fiber number, glaucoma vs normal eye): positive value = fewer fibers in glaucoma eye
# Protocol: (§3) All experiments complied with the Association for Research in Vision and Ophthalmology Statement for the Use of Animals in Ophthalmic and Vision Research. 82 male Brown Norway rats (Rattus norvegicus), each weighing approximately 250 gm, were treated using procedures approved by the Animal Care Committee of the Johns Hopkins University School of Medicine. The rats were housed with a 12 hour light/12 hour dark cycle and fed ad libitum.
# Unilateral elevation of intraocular pressure (“IOP”) was produced in 56 rats by microinjection of hypertonic saline into episcleral veins, following procedures described in Morrison, J. et al., IOVS (March 1998) 39:526-531. Beginning on the day of IOP elevation, the rats were treated daily with intraperitoneal injections of either a vehicle (23 rats with 50 mM HEPES-buffered saline) or a NAALADase inhibitor (11 rats with 10 mg/kg of Compound A and 22 rats with 10 mg/kg of Compound B). 11 saline treated rats, 11 Compound A treated rats and 11 Compound B treated rats were sacrificed at 8 weeks, and the remaining rats at 12 weeks, after initial IOP elevation.
# (§4) The rats were sacrificed by exsanguination under deep pentobarbital anesthesia. They were perfused through the heart with 2% paraformaldehyde/2% glutaraldehyde in 0.1 M phosphate buffer, pH 7.2, and the eyes with attached optic nerves were removed. Cross-sections of the optic nerves from both experimental (glaucoma or transection) and control eyes was removed 1.5 mm posterior to the globe, 1 mm in thickness, and post-fixed in 2% osmium tetroxide in buffer. These were processed into epoxy resin, sectioned at 1 micron and stained with toluidine blue.
# The area of each optic nerve cross-section was measured by outlining its outer border at 10× magnification on an image analysis system (Universal Imaging Corp., Westchester, Pa.) with Synsys digital camera and Metamorph software. Three area measurements were taken and the mean value was determined. To measure the density and fiber diameter distributions, images were captured with a 100× phase contrast objective from 10 different areas of each nerve. These were edited to eliminate non-neural objects and the size of each axon internal to the myelin sheath (its minimum diameter) and the density of axons/square mm were calculated for each image and nerve. The mean density was multiplied by total nerve area to yield fiber number for each nerve. The total fiber number in glaucoma or transection nerves was compared to the normal, fellow eye of each rat to yield a percent loss value. The number of axons counted among the 10 images was approximately 20% of the 80-90,000 axons in normal rat nerves. The person measuring the number of axons was masked to the protocol conducted on the nerves. […]
# [4] = test system: Brown Norway rats (Rattus norvegicus); experiment: Optic nerve transection in rats, optic nerve fiber counting; format: in vivo; settings: for Fiber Number / Percent Difference (fiber number, transected vs normal eye): 10 mg/kg i.p. daily
# Protocol: as §3
# The optic nerve was transected unilaterally in 26 rats under intraperitoneal pentobarbital anesthesia. The conjunctiva was opened with scissors and the optic nerve was exposed by traction on extraocular muscles. The transection was performed with microscissors 5 mm posterior to the globe, with specific attention to avoidance of injury to major ocular blood vessels. Immediately after transection, the retina was examined ophthalmoscopically to assure that the retinal arterial blood supply was not disrupted. The conjunctiva was closed with absorbable suture and the eye dressed with antibiotic ointment. Beginning on the day of transection, the rats were treated daily with intraperitoneal injections of either a vehicle (9 rats with 50 mM HEPES-buffered saline) or a NAALADase inhibitor (8 rats with 10 mg/kg of Compound A and 9 rats with 10 mg/kg of Compound B). 5 saline treated rats, 3 Compound A treated rats and 4 Compound B treated rats were sacrificed at 2 weeks, and the remaining rats at 4 weeks, after transection.
# as §4
# The area of each optic nerve cross-section was measured by outlining its outer border at 10× magnification on an image analysis system (Universal Imaging Corp., Westchester, Pa.) with Synsys digital camera and Metamorph software. Three area measurements were taken and the mean value was determined. To measure the density and fiber diameter distributions, images were captured with a 100× phase contrast objective from 10 different areas of each nerve. These were edited to eliminate non-neural objects and the size of each axon internal to the myelin sheath (its minimum diameter) and the density of axons/square mm were calculated for each image and nerve. The mean density was multiplied by total nerve area to yield fiber number for each nerve. The total fiber number in glaucoma or transection nerves was compared to the normal, fellow eye of each rat to yield a percent loss value. The number of axons counted among the 10 images was approximately 20% of the 80-90,000 axons in normal rat nerves. The person measuring the number of axons was masked to the protocol conducted on the nerves.
# Percent Difference=mean percent difference in fiber number between glaucoma and normal eye in each rat (positive value indicates fewer fibers in the glaucoma eye).
# NAALADase = settings: NAAG as substrate of NAALADase; cited from earlier work
# [5] = diabetic BB/W rats, 10 mg/kg daily for 6 months, 10 mg/kg
# [6] = diabetic BB/W rats, 10 mg/kg daily for 6 months, listed as NAALADASE INHIBITOR, 10 mg/kg
# [7] = diabetic BB/W rats, 30 mg/kg daily for 6 months, 30 mg/kg
# [8] = diabetic BB/W rats, 30 mg/kg daily for 6 months, listed as NAAALADASE INHIBITOR, 30 mg/kg
# [9] = high dose 30 mg/kg, vs diabetic vehicle
# [10] = low dose 10 mg/kg, vs diabetic vehicle
# [11] = 2 weeks survival after transection
# [12] = 4 weeks survival after transection
smiles,measurement,setting,value
"O=C(O)CCC(CP(=O)(O)O)C(=O)O (stereo not drawn) [Compound 2-PMPA, 2-(phosphonomethyl)pentanedioic acid]",effect on development of morphine tolerance,C57/BL mice [1]; 50 or 100 mg/kg of 2-PMPA prior to each dose of morphine,attenuated the development of morphine tolerance
same,effect on antinociceptive effects of morphine,C57/BL mice [2]; 100 mg/kg 2-PMPA i.p. 30 min before 1.5 or 3 mg/kg morphine s.c.,did not affect antinociceptive effects; also recorded: did not differ
same,tail-flick responses (AUC) compared to placebo+placebo treatment,C57/BL mice [2]; 100 mg/kg of 2-PMPA i.p. + placebo,did not affect tail-flick responses; also recorded: did not differ from placebo+placebo treatment
"O=C(O)CCC(CCCS)C(=O)O (stereo not drawn) [Compound B, 2-(3-sulfanylpropyl)pentanedioic acid]",BM THICKNESS (nm) ± SD,BB/W rats; [5],82.3±4.07 nm
same,BM THICKNESS (nm) ± SD,BB/W rats; [6],82.3 ± 4.07 nm
same,E/P RATIO (endothelial cell/pericyte),BB/W rats; [5],2.5±0.5
same,E/P RATIO (endothelial cell/pericyte),BB/W rats; [6],2.5 ± 0.5
same,BM THICKNESS (nm) ± SD,BB/W rats; [7],71.7±4.07 nm
same,BM THICKNESS (nm) ± SD,BB/W rats; [8],71.7 ± 4.07 nm
same,E/P RATIO (endothelial cell/pericyte),BB/W rats; [7],2.0±0.9
same,E/P RATIO (endothelial cell/pericyte),BB/W rats; [8],2.0 ± 0.4
same,effect on body weight,"BB/W rats; diabetic BB/W rats, 6 months of treatment",no effect
same,reduction in BM thickness,BB/W rats; [9],29.0%
same,reduction of endothelial cell to pericyte ratios,BB/W rats; [9],33.0%
same,decrease in BM thickness,BB/W rats; [10],18.5%
same,reduction of endothelial cell to pericyte ratios,BB/W rats; [10],16.7%
same,Fiber Number,[3]; 8 week group,80785 ± 2121**
same,"Percent Difference (fiber number, glaucoma vs normal eye)",[3]; 8 week group,−0.82 ± 2.97%
same,Fiber Number,[3]; 12 week group,90504 ± 1718
same,"Percent Difference (fiber number, glaucoma vs normal eye)",[3]; 12 week group,−3.21 ± 2.86%
same,remaining axons relative to saline-treated rats,[4]; 2 weeks after transection,twice
same,Fiber Number,[4]; [11],"19,550 ± 11,383"
same,"Percent Difference (fiber number, transected vs normal eye)",[4]; [11],75.3 ± 14.8%
same,Fiber Number,[4]; [12],"5,162 ± 5,017"
same,"Percent Difference (fiber number, transected vs normal eye)",[4]; [12],93.4 ± 6.2%
"CC12CC3CC(C)(C1)CC(N)(C3)C2 [Memantine, memantine]",effect on development of morphine tolerance,"C57/BL mice [1]; mouse, in vivo",attenuated the development of morphine tolerance; also recorded: produced an inhibition of morphine tolerance
"CN1CC[C@]23c4c5ccc(O)c4O[C@H]2[C@@H](O)C=C[C@H]3[C@H]1C5 [Morphine, morphine]",ED50,"C57/BL mice [1]; 24 h, read-out: Test #1 ED50 (morphine antinociceptive potency)",1.49 ± 0.26 mg/kg
same,ED50,C57/BL mice [1]; read-out: Test #2 ED50 (morphine antinociceptive potency),8.85 ± 2.22 mg/kg
same,ED50,"C57/BL mice [2]; Mus musculus, sc, read-out: antinociceptive ED50 dose",3 mg/kg
"CC(=O)N[C@@H](CC(=O)O)C(=O)N[C@@H](CCC(=O)O)C(=O)O [NAAG, N-acetyl-aspartyl-glutamate] (Ac-Asp-Glu-OH)",Km,NAALADase,540 nM
